# From ChEMBL document CHEMBL4033700, “From a novel HTS hit to potent, selective, and orally bioavailable KDM5 inhibitors” (Bioorg Med Chem Lett, 2017)
# Tests used:
# [1] = Hepatic clearance in human hepatocytes; assay type: ADME, cell-based, Hepatocyte
# [2] = Protein binding in mouse plasma; assay type: ADME, cell-free; conditions: read-out: PPB (converted)
# [3] = target: T1, Lysine-specific demethylase 5A (Homo sapiens, UniProt P29375); assay: Inhibition of KDM5A in human PC9 cells assessed as increase in H3K4me3 level after 5 days by mass-spectrometric method; assay type: cell-based
# [4] = Hepatic clearance in mouse hepatocytes; assay type: ADME, cell-based, Hepatocyte
# [5] = Oral bioavailability in CD-1 mouse at 5 mg/kg; assay type: ADME, organism-based; conditions: in vivo
# [6] = Hepatic clearance in rat hepatocytes; assay type: ADME, cell-based, Hepatocyte
# [7] = Protein binding in human plasma; assay type: ADME, cell-free; conditions: read-out: PPB (converted)
# [8] = Volume of distribution in CD-1 mouse plasma at 1 mg/kg, iv or 5 mg/kg, po; assay type: ADME, organism-based
# [9] = Hepatic clearance in rat liver microsomes; assay type: ADME, microsome
# [10] = Hepatic clearance in mouse liver microsomes; assay type: ADME, microsome
# [11] = Clearance in CD-1 mouse plasma at 1 mg/kg, iv or 5 mg/kg, po; assay type: ADME, organism-based
# [12] = target: T2, Lysine-specific demethylase 4C (Homo sapiens, UniProt Q9H3R0); assay: Inhibition of recombinant human N-terminal FLAG-tagged KDM4C expressed in baculovirus infected Sf9 insect cells using H3K9me3 peptide as substrate after 30 to 45 mins by TR-FRET assay
# T2 sequence (Q9H3R0 whole entry): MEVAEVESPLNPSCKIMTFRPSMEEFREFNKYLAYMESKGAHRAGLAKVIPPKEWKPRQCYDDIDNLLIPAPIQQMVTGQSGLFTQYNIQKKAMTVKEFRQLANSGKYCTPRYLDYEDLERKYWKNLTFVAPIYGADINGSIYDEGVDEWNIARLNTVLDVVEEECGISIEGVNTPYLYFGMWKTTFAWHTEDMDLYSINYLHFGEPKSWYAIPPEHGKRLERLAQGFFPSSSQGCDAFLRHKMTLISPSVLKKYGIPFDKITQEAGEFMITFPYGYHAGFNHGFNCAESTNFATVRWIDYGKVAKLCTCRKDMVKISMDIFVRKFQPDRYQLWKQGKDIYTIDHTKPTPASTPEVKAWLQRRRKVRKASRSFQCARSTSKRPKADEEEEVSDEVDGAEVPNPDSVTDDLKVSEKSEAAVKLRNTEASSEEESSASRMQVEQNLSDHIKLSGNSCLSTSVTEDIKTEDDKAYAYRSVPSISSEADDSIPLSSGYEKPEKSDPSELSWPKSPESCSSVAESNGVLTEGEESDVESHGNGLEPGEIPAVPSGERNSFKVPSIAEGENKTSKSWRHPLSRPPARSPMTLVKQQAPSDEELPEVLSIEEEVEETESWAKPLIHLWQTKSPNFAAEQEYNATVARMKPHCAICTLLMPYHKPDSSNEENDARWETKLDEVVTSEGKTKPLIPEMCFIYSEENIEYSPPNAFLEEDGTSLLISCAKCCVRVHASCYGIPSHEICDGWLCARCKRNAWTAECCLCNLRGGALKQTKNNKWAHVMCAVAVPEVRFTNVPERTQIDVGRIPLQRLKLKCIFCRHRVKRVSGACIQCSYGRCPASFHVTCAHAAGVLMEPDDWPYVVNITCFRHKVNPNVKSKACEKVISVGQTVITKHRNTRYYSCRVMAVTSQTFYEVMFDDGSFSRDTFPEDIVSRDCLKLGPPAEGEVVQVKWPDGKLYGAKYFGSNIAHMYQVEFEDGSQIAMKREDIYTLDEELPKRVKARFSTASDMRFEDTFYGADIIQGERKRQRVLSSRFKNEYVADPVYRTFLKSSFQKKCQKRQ
# [13] = Hepatic clearance in human liver microsomes; assay type: ADME, microsome
# [14] = Half-life in CD-1 mouse plasma at 1 mg/kg, iv or 5 mg/kg, po; assay type: ADME, organism-based
# [15] = target: T1, Lysine-specific demethylase 5A; assay: Inhibition of recombinant human N-terminal FLAG-tagged KDM5A expressed in baculovirus infected Sf9 insect cells using H3K4me3 peptide as substrate after 30 to 45 mins by TR-FRET assay
# [16] = Protein binding in rat plasma; assay type: ADME, cell-free; conditions: read-out: PPB (converted)
# T1 sequence (P29375 whole entry): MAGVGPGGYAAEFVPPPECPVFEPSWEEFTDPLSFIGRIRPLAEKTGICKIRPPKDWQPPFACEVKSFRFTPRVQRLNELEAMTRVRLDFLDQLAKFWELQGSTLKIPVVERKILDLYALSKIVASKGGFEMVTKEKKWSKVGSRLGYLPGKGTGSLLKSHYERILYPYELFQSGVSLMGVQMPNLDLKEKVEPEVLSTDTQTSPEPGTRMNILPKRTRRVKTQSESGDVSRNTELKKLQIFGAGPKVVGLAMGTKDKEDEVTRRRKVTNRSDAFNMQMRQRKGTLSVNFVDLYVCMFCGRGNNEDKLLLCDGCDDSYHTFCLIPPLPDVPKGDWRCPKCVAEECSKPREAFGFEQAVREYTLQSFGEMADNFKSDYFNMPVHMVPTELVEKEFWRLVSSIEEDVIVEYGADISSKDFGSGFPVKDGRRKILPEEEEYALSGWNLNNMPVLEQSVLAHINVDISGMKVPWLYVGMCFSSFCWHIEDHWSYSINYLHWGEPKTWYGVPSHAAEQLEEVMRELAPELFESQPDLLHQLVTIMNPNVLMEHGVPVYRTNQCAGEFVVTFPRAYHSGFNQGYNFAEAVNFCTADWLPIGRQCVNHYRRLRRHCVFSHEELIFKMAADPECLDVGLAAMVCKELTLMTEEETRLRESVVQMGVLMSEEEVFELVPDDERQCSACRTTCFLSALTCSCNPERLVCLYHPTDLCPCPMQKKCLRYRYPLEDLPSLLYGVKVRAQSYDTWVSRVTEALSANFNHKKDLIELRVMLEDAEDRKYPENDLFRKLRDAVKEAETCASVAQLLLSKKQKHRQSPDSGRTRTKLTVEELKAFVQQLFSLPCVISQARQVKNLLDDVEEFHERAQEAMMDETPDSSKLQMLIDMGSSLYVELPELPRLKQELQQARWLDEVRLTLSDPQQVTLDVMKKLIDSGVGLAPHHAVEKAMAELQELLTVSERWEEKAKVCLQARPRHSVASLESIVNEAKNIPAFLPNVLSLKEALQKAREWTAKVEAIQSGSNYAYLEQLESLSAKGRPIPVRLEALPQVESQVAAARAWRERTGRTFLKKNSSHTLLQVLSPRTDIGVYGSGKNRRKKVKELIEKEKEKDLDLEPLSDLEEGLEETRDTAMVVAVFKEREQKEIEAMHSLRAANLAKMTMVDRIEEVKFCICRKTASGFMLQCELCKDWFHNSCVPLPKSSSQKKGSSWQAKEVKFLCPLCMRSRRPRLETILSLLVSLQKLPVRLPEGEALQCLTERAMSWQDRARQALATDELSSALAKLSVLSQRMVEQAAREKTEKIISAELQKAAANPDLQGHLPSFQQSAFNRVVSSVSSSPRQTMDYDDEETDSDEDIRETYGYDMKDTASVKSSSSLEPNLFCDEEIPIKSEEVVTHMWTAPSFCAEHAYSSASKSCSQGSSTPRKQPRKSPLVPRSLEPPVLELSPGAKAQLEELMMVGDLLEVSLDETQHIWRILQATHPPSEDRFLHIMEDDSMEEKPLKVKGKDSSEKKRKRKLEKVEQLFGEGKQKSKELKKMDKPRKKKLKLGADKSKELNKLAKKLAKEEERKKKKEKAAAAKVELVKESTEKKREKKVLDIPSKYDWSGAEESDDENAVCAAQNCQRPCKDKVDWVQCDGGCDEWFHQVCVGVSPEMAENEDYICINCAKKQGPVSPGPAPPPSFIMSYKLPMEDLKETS
compound,measurement,setting,value
Cc1cc(-c2cnn(C)c2)cc(C2CCN(C(=O)c3cc(C(C)C)n[nH]3)C2)n1 (stereo in doubt; 9),CLhep predicted,[1],12 mL/min/kg
same,fraction unbound,[2],0.043
same,EC50,[3],> 30 µM
same,CLhep predicted,[4],66 mL/min/kg
same,bioavailability,[5],94%
same,CLhep predicted,[6],39 mL/min/kg
same,fraction unbound,[7],0.045
same,Vd,[8],2.1 L/kg
same,CLhep predicted,[9],37 mL/min/kg
same,CLhep predicted,[10],69 mL/min/kg
same,clearance,[11],99.9 mL/min/kg
same,IC50,[12],13.3 µM
same,CLhep predicted,[13],7 mL/min/kg
same,half-life,[14],18 min
same,IC50,[15],0.16 µM
same,fraction unbound,[16],0.027
